# Measurements from patent publication US20260068882A1, “ARTHROPOD CONTROLLING COMPOSITION” (Firmenich SA, priority 2019, published 2026).
# Key:
# Aedes aegypti [1] = experiment: In vivo K&D assay on treated skin of human study participants
# Excerpt: For the K&D in vivo test [Klun J A, Debboun M. A new module for quantitative evaluation of controlling efficacy using human subjects. J Med Entomol. 2000; 37:177-81.], 3 study participants, 2 females and 1 male, showing low or no skin reactions against mosquito bites were recruited at the Swiss Tropical and Public Health Institute (Swiss TPH). […] The study was approved by the Ethics Commission of Northwest and Central Switzerland (Study no. PB_2017-00436-220/11) and all study participants signed an informed consent form. To avoid unwanted bias the participants were asked to avoid alcohol and products such as perfume, eau de cologne and lotions for at least 12 hours before and during the experiments. During the experiments the participants were also asked to avoid rubbing, touching or wetting the arthropod controlling compound-treated area as well as any activity that might lead to increased perspiration.
# In the in vivo assay, a template was used to delineate 4 cm×5 cm areas on the skin that correspond to each of the six cell openings (3 cm×4 cm) on the bottom of the K&D module. Five areas were treated with the different tested stimuli. The module, with five host-seeking, 5- to 10-day-old mosquitoes in each cell, was then positioned over the treated skin area. The number of mosquitoes blood feeding within a 2-minute exposure was recorded. This procedure was repeated until six replicate exposures and observations (i.e. 30 mosquitoes) were made for the three study participants.
# Aedes aegypti [2] = experiment: In vitro Warm Body assay, mosquitoes landing on treated warm body; format: in vivo; conditions: for % of mosquitoes' repellency: normalised to landing with 100% ethanol
# In short: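 Adapted Warm Body assay with host-seeking, non-blood-fed, sugar-fed A. aegypti Rockefeller females aged 5–10 days (10–12 days in one set); cages held 30 (or 25) females at 150 lux. Landings were counted automatically. Doses in ethanol were 0.0016%, 0.04% and 1% in triplicate, or a single replicate across 0.0016–1%.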
# Aedes aegypti [3] = experiment: In vivo arm in cage test on forearm of human volunteers; conditions: for % of repellency MEAN: 20% in ethanol on forearm, three volunteers
# Experimental: The Arm in the box method was adapted from the WHO Guidelines for efficacy testing of mosquito repellents for human skin (WHO/CDS/NTD/WHOPES/2009.4). The readiness of 100 hungry female mosquitoes A. aegypti to probe is assessed by inserting an untreated arm into the cage (40×40×40 cm) for 30 seconds (negative control) three times (once at the beginning, once at the fourth hour and once at the eighth hour), to determine probing activity.
# Then, the product is applied onto the skin of the forearm of a human volunteer (1 ml per 600 cm^2) and after 5 minutes, this arm is inserted into the cage and exposed for 3 minutes. The assay take place in temperature (27±2° C.) and humidity (80±10% RH) regulated room on three different volunteers.
# Aedes aegypti [4] = experiment: as above; conditions: 20% in ethanol on forearm; 0.05 h post application; three volunteers
# [5] = Aedes aegypti, read-out: decrease of landings
compound,measurement,setting,value
"Cc1ccc2c(c1)CC(C)(CO)C2 (stereo not shown) [ingredient #2, (2,5-dimethyl-2,3-dihydro-1H-inden-2yl)methanol]",% repulsion,Aedes aegypti [1]; 0.02% in ethanol on human skin,23.3%
same,% repulsion,Aedes aegypti [1]; 0.1% in ethanol on human skin,27.8%
same,% repulsion,Aedes aegypti [1]; 0.5% in ethanol on human skin,54.4%
same,% repulsion,Aedes aegypti [1]; 2.5% in ethanol on human skin,82.2%
same,% repulsion,Aedes aegypti [1]; 10% in ethanol on human skin,93.3%
same,concentration from which a significant repellent effect is shown,"Aedes aegypti [1]; on its own, in ethanol",≥ 0.5%
same,% of mosquitoes' repellency,Aedes aegypti [2]; 0.00032% concentration,18%
same,% of mosquitoes' repellency,Aedes aegypti [2]; 0.00071% concentration,46%
same,% of mosquitoes' repellency,Aedes aegypti [2]; 0.0016% concentration,14%
same,number of mosquitoes landed on the Warm Body,"Aedes aegypti [2]; 0.0016% in ethanol (Table 7, one replicate)",68
same,% of mosquitoes' repellency,Aedes aegypti [2]; 0.0036% concentration,46%
same,% of mosquitoes' repellency,Aedes aegypti [2]; 0.0053% concentration,0%
same,% of mosquitoes' repellency,Aedes aegypti [2]; 0.0080% concentration,26%
same,number of mosquitoes landed on the Warm Body,"Aedes aegypti [2]; 0.008% in ethanol (Table 7, one replicate)",61
same,% of mosquitoes' repellency,Aedes aegypti [2]; 0.018% concentration,26%
same,% of mosquitoes' repellency,Aedes aegypti [2]; 0.040% concentration,61%
same,number of mosquitoes landed on the Warm Body,"Aedes aegypti [2]; 0.04% in ethanol (Table 7, one replicate)",22
same,% of mosquitoes' repellency,Aedes aegypti [2]; 0.089% concentration,60%
same,% of mosquitoes' repellency,Aedes aegypti [2]; 0.20% concentration,80%
same,number of mosquitoes landed on the Warm Body,"Aedes aegypti [2]; 0.2% in ethanol (Table 7, one replicate)",9
same,number of mosquitoes landed on the Warm Body,"Aedes aegypti [2]; 0.447% in ethanol (Table 7, one replicate)",3
same,% of mosquitoes' repellency,Aedes aegypti [2]; 0.45% concentration,93%
same,% of mosquitoes' repellency,Aedes aegypti [2]; 1% concentration,91%
same,number of mosquitoes landed on the Warm Body,"Aedes aegypti [2]; 1% in ethanol (Table 7, one replicate)",8
same,pest or weed control at 0.0016 %,Aedes aegypti [2]; [5],4 to 29%
same,pest or weed control at 0.04 %,Aedes aegypti [2]; [5],~70%
same,repulsion (in words),Aedes aegypti [2]; concentrations lower than 0.04%,only low repulsion
same,% of repellency MEAN,Aedes aegypti [3]; 1 h post application,98.83%
same,% of repellency MEAN,Aedes aegypti [3]; 2 h post application,97.79%
same,% of repellency MEAN,Aedes aegypti [3]; 3 h post application,96.72%
same,% of repellency MEAN,Aedes aegypti [3]; 4 h post application,94.71%
same,% of repellency MEAN,Aedes aegypti [3]; 5 h post application,94.05%
same,% of repellency MEAN,Aedes aegypti [3]; 6 h post application,91.99%
same,% of repellency MEAN,Aedes aegypti [3]; 7 h post application,90.91%
same,% of repellency MEAN,Aedes aegypti [3]; 8 h post application,84.67%
same,reduction of the number of mosquitoes landing on the volunteers' arm,"Aedes aegypti [3]; 20% in ethanol, for up to 7 h",more than 90%
same,% of repellency MEAN,Aedes aegypti [4],99.1%
